In ChEMBL document CHEMBL5143641, “Expanding the Chemical Diversity of Fasamycin Via Genome Mining and Biocatalysis” (2022):

Legend:
Format in all cases: functional
[1] = system: Bacillus subtilis; test: Antimicrobial activity against Bacillus subtilis ATCC 23857 assessed as inhibition of microbial growth incubated for 16 hrs under shaking condition by microdilution assay
[2] = system: Staphylococcus aureus; test: Antimicrobial activity against Staphylococcus aureus ATCC 51650 assessed as inhibition of microbial growth incubated for 16 hrs under shaking condition by microdilution assay
[3] = system: Escherichia coli; test: Antimicrobial activity against Escherichia coli ATCC 25922 assessed as inhibition of microbial growth incubated for 16 hrs under shaking condition by microdilution assay
[4] = system: Candida albicans; test: Antimicrobial activity against Candida albicans ATCC 10231 assessed as inhibition of microbial growth incubated for 16 hrs under shaking condition by microdilution assay

Row | SMILES | MIC [1] | MIC [2] | MIC [3] | MIC [4]
1 | COc1cc(C)c(-c2cc(OC)cc3cc4c(c(O)c23)C(=O)c2c(O)cc(O)cc2C4(C)C)c(O)c1 | 12.5 µg/mL | 6.3 µg/mL | > 100 µg/mL | > 100 µg/mL
2 | COc1cc2c(c(O)c1Cl)C(=O)c1c(cc3cc(O)cc(-c4c(O)cc(OC)c(Br)c4C)c3c1O)C2(C)C | 1.6 µg/mL | 3.1 µg/mL | > 100 µg/mL | > 100 µg/mL
3 | COc1cc(C)c(-c2cc(OC)cc3cc4c(c(O)c23)C(=O)c2c(O)cc(OC)cc2C4(C)C)c(O)c1 | > 100 µg/mL | > 100 µg/mL | > 100 µg/mL | > 100 µg/mL
4 | COc1cc(O)c(-c2cc(O)c(Br)c3cc4c(c(O)c23)C(=O)c2c(O)cc(O)cc2C4(C)C)c(C)c1Br | 1.6 µg/mL | 1.6 µg/mL | > 100 µg/mL | > 100 µg/mL
5 | COc1cc(O)c(-c2cc(O)cc3cc4c(c(O)c23)C(=O)c2c(O)cc(O)cc2C4(C)C)c(C)c1Br | 3.1 µg/mL | 3.1 µg/mL | > 100 µg/mL | > 100 µg/mL
6 | COc1cc(O)c2c(c1)C(C)(C)c1cc3cc(O)cc(-c4c(O)cc(OC)c(Br)c4C)c3c(O)c1C2=O | 1.6 µg/mL | 3.1 µg/mL | > 100 µg/mL | > 100 µg/mL
7 | NC[C@H]1O[C@H](O[C@H]2[C@H](O)[C@@H](O[C@H]3O[C@H](CO)[C@@H](O)[C@H](N)[C@H]3O)[C@H](N)C[C@@H]2N)[C@H](O)[C@@H](O)[C@@H]1O [KANAMYCIN] | 0.8 µg/mL | 1.6 µg/mL | – | –

Next, values leading:

Row | MIC [1] | MIC [2] | MIC [3] | MIC [4] | SMILES
8 | 6.3 µg/mL | 6.3 µg/mL | > 100 µg/mL | > 100 µg/mL | COc1cc(O)c(-c2cc(O)cc3cc4c(c(O)c23)C(=O)c2c(O)cc(O)cc2C4(C)C)c(C)c1Cl
9 | 12.5 µg/mL | 12.5 µg/mL | > 100 µg/mL | > 100 µg/mL | COc1cc(C)c(-c2cc(O)cc3cc4c(c(O)c23)C(=O)c2c(cc(O)c(Cl)c2O)C4(C)C)c(O)c1
10 | 1.6 µg/mL | 3.1 µg/mL | > 100 µg/mL | > 100 µg/mL | COc1cc(C)c(-c2cc(O)cc3cc4c(c(O)c23)C(=O)c2c(cc(OC)c(Cl)c2O)C4(C)C)c(O)c1
11 | 1.6 µg/mL | 3.1 µg/mL | > 100 µg/mL | > 100 µg/mL | COc1cc(O)c2c(c1)C(C)(C)c1cc3cc(O)cc(-c4c(O)cc(OC)c(Cl)c4C)c3c(O)c1C2=O
12 | 1.6 µg/mL | 3.1 µg/mL | > 100 µg/mL | > 100 µg/mL | COc1cc(C)c(-c2cc(O)cc3cc4c(c(O)c23)C(=O)c2c(O)cc(OC)cc2C4(C)C)c(O)c1
13 | 3.1 µg/mL | 3.1 µg/mL | > 100 µg/mL | > 100 µg/mL | COc1cc(C)c(-c2cc(O)cc3cc4c(c(O)c23)C(=O)c2c(cc(OC)c(Br)c2O)C4(C)C)c(O)c1
